Several values for one entry are separate records, joined by “and”; a condition that tells them apart may be missing. Equal values may be shown once. Entries after “also recorded” stand apart in the source; their conditions may differ.
Legend:
Human AChE = target: T1, Human AChE (Homo sapiens, UniProt P22303); assay: biochemical; conditions: read-out: AChE IC50
T1 construct: purchased Sigma
Experimental: This acetylcholinesterase (AChE) assay is based on an Amplex Red assay kit (Thermo Fisher A12217). Human AChE (Sigma) was used. Briefly, 5 μL of compounds at the desired concentration were loaded into wells of a 384-well plate. Then, 5 μl of human AChE (30 mU/mL) was loaded into each well, followed by the addition of 10 μL of the working solution which contains 400 μM Amplex Red reagent, 2 U/mL HRP, 0.2 U/mL choline oxidase, and 100 μM acetylcholine. The reaction was monitored for 60 minutes and read at 530/590 nm. AChE IC50 was determined by plotting AChE activity as a percentage of DMSO control using GraphPad Prism software.

[1] = Parallel artificial membrane permeability (IAM column) prediction of CNS permeability; type: in vitro ADME; conditions: PAMPA, 2 mM
Experimental: To predict the potential for brain permeability, a Regis Technologies analytical column connected to an Agilent HPLC system (Infinity 1260 quaternary pump and multiple wavelength detector; 1200 autosampler) was used. An IAM.PC.DD column was (4.6 mm i.d.×10 cm, particle size 5 μm; pore size 300 Å) conditioned with 20 column volumes of mobile phase or until a stable line was achieved. A mobile phase with a consistent flow rate of 1 mL/min was used comprising 100 mM Na2PO4 (solvent A) and acetonitrile (solvent B); compounds were eluted using a gradient (min/% B: 0/30, 10/60, 11/30, 15/30). Detector settings were 220, 250 and 280 nm and acquisition time was 15 min. The autosampler injected 10 μL of compound at 2 mM final, diluted from 10 mM in DMSO in 70:30 (water:acetonitrile). After elution, compound retention and void volume times were obtained from the chromatogram. The IAM capacity factor: (KIAM) was calculated using the equation: […]
where tr is the retention time of a compound and t0 is the void volume time of the column. To predict CNS permeability, we used the correlation described by the formula below.

[2] = tested on: HEK293T Tau RD P301S FRET biosensor (tau biosensor) cells; assay: Donor plus Recipient (D+R) tau propagation assay; type: cell-based; conditions: 20 μM
Experimental: HEK293T Tau RD P301S FRET biosensor (tau biosensor) cells were grown in Dulbecco's Modified Eagle's medium (DMEM) with high glucose, 10% FBS, and 1% Penicillin-streptomycin at 37° C./5% CO2. The lead inhibitors were tested in functional tau propagation “D+R” (Donors plus Recipients) and EMT (EV-mediated transfer) assays using the tau biosensors. Briefly, tau aggregation in donor cells (D) was induced by transfection of tau biosensor cells with human AD brain derived synaptosomal extracts (35 μg of synaptosomal fraction for 5 million cells in one 10 cm dish); control cells were treated with corresponding amount of transfection reagent lipofectamine 2000. After 24 hr incubation, the cells were trypsinized and plated together with DID-labeled recipient cells (R) in a 1:1 ratio in 96-well plates (15,000 of each cell type per well) for D+R assay or 1.5 million of donor cells per well in 6-well plates for EMT assay. Tested compounds or a corresponding amount of DMSO (0.2%) was added to the cell culture medium, DMEM, which contained 10% of exosome-depleted FBS (ThermoFisher, A2720803). Four technical replicates were used for each experimental condition. The inhibitors were tested at 20 μM concentration. […] Tau seed transfer from donor to recipient cells results in FRET signal generation in the DID-positive recipient cells, which was measured by flow cytometry. Integrated FRET density was calculated in the top 30% of DID-positive cell based on DID signal intensity.
An Attune NxT Flow Cytometer (Invitrogen) equipped with an autosampler and FRET-compatible laser lines and filter sets was used for FRET signal detection. The FRET (CFP/YFP) signal was excited by a 405 nm laser for CFP excitation and detected in the YFP image detection channel. Flow cytometry data was analyzed using FCS Express version 5 software (DeNovo Software California, USA). Integrated FRET density was calculated as a product of percentage FRET positive cells and median of fluorescent intensity of the FRET positive cells as previously established.

[3] = tested on: HEK293T Tau RD P301S FRET biosensor (tau biosensor) cells; assay: EV-mediated tau seed transfer (EMT) assay; type: cell-based; conditions: 20 μM
Experimental: HEK293T Tau RD P301S FRET biosensor (tau biosensor) cells were grown in Dulbecco's Modified Eagle's medium (DMEM) with high glucose, 10% FBS, and 1% Penicillin-streptomycin at 37° C./5% CO2. The lead inhibitors were tested in functional tau propagation “D+R” (Donors plus Recipients) and EMT (EV-mediated transfer) assays using the tau biosensors. Briefly, tau aggregation in donor cells (D) was induced by transfection of tau biosensor cells with human AD brain derived synaptosomal extracts (35 μg of synaptosomal fraction for 5 million cells in one 10 cm dish); control cells were treated with corresponding amount of transfection reagent lipofectamine 2000. After 24 hr incubation, the cells were trypsinized and plated together with DID-labeled recipient cells (R) in a 1:1 ratio in 96-well plates (15,000 of each cell type per well) for D+R assay or 1.5 million of donor cells per well in 6-well plates for EMT assay. Tested compounds or a corresponding amount of DMSO (0.2%) was added to the cell culture medium, DMEM, which contained 10% of exosome-depleted FBS (ThermoFisher, A2720803). Four technical replicates were used for each experimental condition. The inhibitors were tested at 20 μM concentration. In 48 hours 50 μL of culture medium per well were collected for cell viability test (Cytotox 96 non-radioactive cytotoxicity assay, Promega Corp., Madison, Wis.). The cells in D+R assay were harvested at the 48 hr time point and fixed with 2% paraformaldehyde for flow cytometry analysis according to published protocol. Tau seed transfer from donor to recipient cells results in FRET signal generation in the DID-positive recipient cells, which was measured by flow cytometry. Integrated FRET density was calculated in the top 30% of DID-positive cell based on DID signal intensity.
For the EMT assay, cell culture medium from donor cells growing for 48 hours with the compounds at concentrations of 20 μM or a corresponding amount of DMSO (0.2%), was collected and EVs were purified using the ExoQuick-TC kit (SBI biosciences) according to the manufacturer's instructions. Naïve recipient cells were plated in 96 well plates at a density of 20,000 cells per well in exosome-free medium and transfected with donor cell-derived exosomes at 12 hrs. The recipient cells were harvested 60 hours after transfection and FRET signals were analyzed using flow cytometry.
An Attune NxT Flow Cytometer (Invitrogen) equipped with an autosampler and FRET-compatible laser lines and filter sets was used for FRET signal detection. […] Flow cytometry data was analyzed using FCS Express version 5 software (DeNovo Software California, USA). Integrated FRET density was calculated as a product of percentage FRET positive cells and median of fluorescent intensity of the FRET positive cells as previously established.

[4] = Brain pharmacokinetic analysis after SQ dosing
Experimental: Pharmacokinetic (PK) analysis on the leads 8 and 11 to determine brain permeability using wild type mice was performed. The compounds were subcutaneously (SQ) injected at a dose of 20 mg per kg of body weight (mpk). Brain and plasma samples were collected 1, 2, and 4 hours after dosing.

[5] = tested on: Tau P301S (PS19 line) tauopathy mouse model; assay: Rapid in vivo assay: IL1β-induced brain EV release; design: species or system mice
[6] = tested on: donor cells (tau biosensor cells); assay: Donor cell number and viability in EMT assay; type: cell-based; conditions: 48 hours after sub-culture, 20 μM, vs DMSO
Experimental: HEK293T Tau RD P301S FRET biosensor (tau biosensor) cells were grown in Dulbecco's Modified Eagle's medium (DMEM) with high glucose, 10% FBS, and 1% Penicillin-streptomycin at 37° C./5% CO2. The lead inhibitors were tested in functional tau propagation “D+R” (Donors plus Recipients) and EMT (EV-mediated transfer) assays using the tau biosensors. Briefly, tau aggregation in donor cells (D) was induced by transfection of tau biosensor cells with human AD brain derived synaptosomal extracts (35 μg of synaptosomal fraction for 5 million cells in one 10 cm dish); control cells were treated with corresponding amount of transfection reagent lipofectamine 2000. After 24 hr incubation, the cells were trypsinized and plated together with DID-labeled recipient cells (R) in a 1:1 ratio in 96-well plates (15,000 of each cell type per well) for D+R assay or 1.5 million of donor cells per well in 6-well plates for EMT assay. Tested compounds or a corresponding amount of DMSO (0.2%) was added to the cell culture medium, DMEM, which contained 10% of exosome-depleted FBS (ThermoFisher, A2720803). […] Tau seed transfer from donor to recipient cells results in FRET signal generation in the DID-positive recipient cells, which was measured by flow cytometry. Integrated FRET density was calculated in the top 30% of DID-positive cell based on DID signal intensity.

[7] = tested on: HEK293T Tau RD P301S FRET biosensor (tau biosensor) cells; assay: EV-mediated tau seed transfer (EMT) assay; type: cell-based; conditions: 20 μM; remark: listed apart in the source
[8] = target: human serum albumin (HSA) (Homo sapiens, UniProt P02768); assay: Binding to human serum albumin (HSA)
[9] = tested on: HEK293T Tau RD P301S FRET biosensor cells; assay: Tau biosensor cells seeded with AD brain synaptosomal (P2) extract, FRET signal; type: cell-based; conditions: 10 μM, imaged after 24 hrs, vs DMSO
Experimental: Brain autopsy samples were obtained from the University of California Irvine, University of Southern California AD Research Centers, and University of California, Los Angeles. Brain tissue was cryopreserved and synaptosomal fractions (P2-fractions, or P2) were prepared as previously described. In order to prepare P2-extracts, aliquots were quickly defrosted at 37° C. and centrifuged at 10,000×g for 10 min at 4° C. to remove P2 from sucrose. After aspirating the supernatant, cold PBS was added to each sample in Ma 1:5 weight/volume ratio. Samples were then sonicated in 10-second intervals three times, incubated on ice for 30 min and centrifuged at 20,000 g for 20 min at 4° C. P2 extracts were collected and stored at −80° C. Tau biosensor cell treatment and analysis. HEK293T Tau RD P301S FRET biosensor cells (tau biosensors) were growing in the Dulbecco's Modified Eagle's medium (DMEM) with higher glucose, 10% FBS, and 1% Penicillin-streptomycin at 37° C./5% CO2. Cells were plated in 10-sm dishes (3 million cells per dish in the regular medium) and grown for 12 hrs. Cells were transduced with pulled synaptosomal (P2) extracts from AD cases using lipofectamine 2000. […]
Cells were imaged after 24 hrs using automated microscope imaging system (Lionheart FX) equipped with 20× objective and CFP-YFP FRET Image filter cube. […] FRET signal was detected using LSRII flow cytometer (BD biosciences). […]

Chain of human serum albumin (HSA) (P02768 25-609): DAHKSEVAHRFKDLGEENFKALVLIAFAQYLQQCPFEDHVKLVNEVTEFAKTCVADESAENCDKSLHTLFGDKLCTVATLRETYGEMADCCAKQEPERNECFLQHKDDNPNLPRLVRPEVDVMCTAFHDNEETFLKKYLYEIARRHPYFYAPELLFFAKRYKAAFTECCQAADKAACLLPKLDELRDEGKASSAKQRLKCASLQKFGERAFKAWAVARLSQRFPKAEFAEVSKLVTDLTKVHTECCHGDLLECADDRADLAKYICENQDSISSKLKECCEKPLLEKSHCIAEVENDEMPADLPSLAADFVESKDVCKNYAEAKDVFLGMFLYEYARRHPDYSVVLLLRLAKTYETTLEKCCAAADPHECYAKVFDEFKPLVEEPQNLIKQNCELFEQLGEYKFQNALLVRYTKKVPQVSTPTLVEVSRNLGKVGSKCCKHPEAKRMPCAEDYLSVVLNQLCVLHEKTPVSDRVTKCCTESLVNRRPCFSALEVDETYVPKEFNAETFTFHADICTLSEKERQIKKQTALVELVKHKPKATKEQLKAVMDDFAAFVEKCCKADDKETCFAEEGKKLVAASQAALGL
T1 sequence (P22303 32-614): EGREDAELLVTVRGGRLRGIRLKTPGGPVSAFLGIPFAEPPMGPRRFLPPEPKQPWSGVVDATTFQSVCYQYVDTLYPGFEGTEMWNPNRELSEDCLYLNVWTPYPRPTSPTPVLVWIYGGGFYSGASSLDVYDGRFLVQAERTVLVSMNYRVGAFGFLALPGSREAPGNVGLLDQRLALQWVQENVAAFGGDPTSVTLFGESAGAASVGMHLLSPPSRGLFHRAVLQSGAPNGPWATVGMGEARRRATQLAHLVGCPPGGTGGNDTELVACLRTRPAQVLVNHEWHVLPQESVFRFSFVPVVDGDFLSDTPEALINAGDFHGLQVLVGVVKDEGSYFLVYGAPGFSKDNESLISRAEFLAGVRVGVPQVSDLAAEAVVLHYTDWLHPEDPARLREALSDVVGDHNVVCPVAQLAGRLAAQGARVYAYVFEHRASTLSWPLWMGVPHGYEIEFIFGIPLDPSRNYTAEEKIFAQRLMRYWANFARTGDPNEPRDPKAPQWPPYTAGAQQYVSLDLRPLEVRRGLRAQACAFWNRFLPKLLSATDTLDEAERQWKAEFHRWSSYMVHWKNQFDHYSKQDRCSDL

## CN1c2ccc(OC(=O)Nc3cccnc3)cc2[C@]2(C)CCO[C@H]12 [Compound 11]
Human AChE
  IC50: 1700 nM
[1]
  CNS perm (PAMPA): 1.8
[2]
  decrease of FRET fluorescence density from DMSO-control, D+R assay: 19.5%
[2]; 48 hrs
  tau seed transfer from donor to recipient cells, D+R assay: suppress tau propagation; also recorded: significantly suppresses
[3]
  decrease of FRET fluorescence density from DMSO-control, EMT assay: 41.3%
[3]; donor cells 48 hrs
  tau seed transfer from donor to recipient cells, EMT assay: suppress tau propagation; also recorded: significantly suppresses
[4]; mice, 20 mg/kg SQ
  brain penetration (compound levels in brain tissue, LC-MS/MS): penetrated the brain
[4]; mouse, in vivo, 20 mg/kg
  concentration at 1 h: 262 ng/g and ~800 nM
[4]; wild type mice, 20 mg/kg SQ
  time of peak brain levels after SQ dosing: around one
[5]; 20 mg/kg SQ
  IL1β-induced tau release by exosomes: significantly reduced
  difference in CD11b levels (microglia-derived exosomes) vs IL1β group: not significant
  exosome-associated BIN1 upon IL1β stimulation: lower
[5]; 20 mg/kg SQ, vs IL1β group
  level of astrocyte-derived exosomes (GLAST): significantly reduced
[5]; 20 mg/kg SQ, vs IL1β only group
  exosomal marker CD63 in exosome-enriched F2 fractions: significant reduction
[5]; mouse, in vivo, 20 mg/kg
  IL1β-induced brain EV / exosomal release (small EV concentration, TRPS): diminished IL1β-induced brain EV release; also recorded: suppressed IL1β-induced exosomal release to the control level
[6]
  donor cell numbers or survival: didn't affect
[7]
  EV size distribution of donor-derived EVs (TRPS): did not affect
  concentrations of exosomal-type small EVs from donor cells: decreased
[7]; vs DMSO control
  levels of exosomal markers CD63, CD81, and syntenin-1 in donor EVs: reduced
[8]
  degree of binding to human serum albumin (HSA): low degree of binding
[8]; human, human serum albumin
  fraction unbound: 0.31

## O=c1[nH]c(=S)[nH]c(-c2ccccc2)c1Cc1c(O)ccc2ccccc12 [DDL-112, cambinol]
[9]
  amount of FRET-positive tau aggregates (microscopy): visibly decreased
